Biological target: cloned human NR1/NR2B ion channels (Homo sapiens (Human), UniProt Q05586+Q13224)
Experiment: HNR2BC: effects of test articles on cloned human NR1/NR2B ion channels expressed in mammalian cells (FLIPR calcium flux)
Format: cell-based
Details: cloned human NR1/NR2B ion channels, Table 5
Procedure, shortened: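 In a stable Tet-On-induced cell line expressing human GluN1/GluN2B, Calcium 5-loaded cells were preincubated 5 min with compound, then stimulated 5 min with glutamate at ~EC80 plus 10 μM glycine, in pH 7.4 HEPES buffer. FLIPR calcium fluorescence was normalized to control wells.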

cloned human NR1/NR2B ion channels, sequence (Q13224 27-1484, other chains not shown): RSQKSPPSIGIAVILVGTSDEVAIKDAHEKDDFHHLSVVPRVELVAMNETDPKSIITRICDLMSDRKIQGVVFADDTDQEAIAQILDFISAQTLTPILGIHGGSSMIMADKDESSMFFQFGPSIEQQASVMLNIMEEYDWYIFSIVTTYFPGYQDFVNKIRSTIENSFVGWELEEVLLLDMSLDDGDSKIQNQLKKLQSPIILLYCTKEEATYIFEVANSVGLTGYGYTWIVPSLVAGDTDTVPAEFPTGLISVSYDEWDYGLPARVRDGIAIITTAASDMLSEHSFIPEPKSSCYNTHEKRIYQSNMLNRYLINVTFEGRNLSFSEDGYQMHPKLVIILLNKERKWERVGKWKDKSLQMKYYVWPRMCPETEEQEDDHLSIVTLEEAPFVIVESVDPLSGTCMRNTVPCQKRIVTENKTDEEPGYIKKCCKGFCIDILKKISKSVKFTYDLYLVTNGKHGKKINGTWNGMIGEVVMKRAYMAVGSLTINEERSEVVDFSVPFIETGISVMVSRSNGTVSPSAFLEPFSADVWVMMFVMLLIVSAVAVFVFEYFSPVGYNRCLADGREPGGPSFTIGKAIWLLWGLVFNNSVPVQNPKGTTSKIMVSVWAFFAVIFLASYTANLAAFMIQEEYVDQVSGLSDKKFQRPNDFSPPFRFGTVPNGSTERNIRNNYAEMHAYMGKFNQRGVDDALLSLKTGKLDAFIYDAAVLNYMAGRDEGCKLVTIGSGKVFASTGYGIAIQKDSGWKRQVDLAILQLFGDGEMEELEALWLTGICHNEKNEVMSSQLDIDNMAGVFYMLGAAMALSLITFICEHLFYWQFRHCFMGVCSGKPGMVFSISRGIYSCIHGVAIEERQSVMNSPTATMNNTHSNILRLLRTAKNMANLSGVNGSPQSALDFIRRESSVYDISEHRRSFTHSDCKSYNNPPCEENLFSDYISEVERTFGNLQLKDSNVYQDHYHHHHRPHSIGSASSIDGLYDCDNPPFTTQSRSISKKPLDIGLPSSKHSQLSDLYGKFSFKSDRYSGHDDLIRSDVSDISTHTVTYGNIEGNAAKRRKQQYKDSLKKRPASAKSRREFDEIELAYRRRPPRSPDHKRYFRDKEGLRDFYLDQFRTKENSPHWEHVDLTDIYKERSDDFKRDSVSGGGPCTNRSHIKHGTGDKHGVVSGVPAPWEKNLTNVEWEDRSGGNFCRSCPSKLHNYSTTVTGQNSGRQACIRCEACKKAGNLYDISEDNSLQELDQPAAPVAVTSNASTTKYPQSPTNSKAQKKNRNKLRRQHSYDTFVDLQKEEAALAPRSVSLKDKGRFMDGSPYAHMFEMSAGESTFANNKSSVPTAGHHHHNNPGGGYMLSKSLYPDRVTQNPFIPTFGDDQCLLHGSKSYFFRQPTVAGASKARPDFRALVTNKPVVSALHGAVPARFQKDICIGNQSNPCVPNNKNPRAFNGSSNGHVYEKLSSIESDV

Structure (SMILES) | IC50
CN(C)C(=O)Cn1cc(F)c2ncc(-c3cccc(Cl)c3F)cc21 [Example 606, 2-[6-(3-Chloro-2-fluoro-phenyl)-3-fluoro-pyrrolo[3,2-b]pyridin-1-yl]-N,N-dimethyl-acetamide] | 63.1 nM
O=C(Cn1cc(F)c2ncc(-c3ccc(F)c(Cl)c3)cc21)N1CC(F)C1 [Example 608, 2-[6-(3-Chloro-4-fluoro-phenyl)-3-fluoro-pyrrolo[3,2-b]pyridin-1-yl]-1-(3-fluoroazetidin-1-yl)ethanone] | 20 nM
CN(C)C(=O)Cn1cc(C(F)(F)F)c2ncc(-c3cc(F)cc(F)c3)cc21 [Example 611, 2-[6-(3,5-Difluorophenyl)-3-(trifluoromethyl)pyrrolo[3,2-b]pyridin-1-yl]-N,N-dimethyl-acetamide] | 10 nM
FC(F)(F)c1cccc(-c2cnc3ccn(Cc4cccnn4)c3c2)c1 [Example 613, 1-(Pyridazin-3-ylmethyl)-6-[3-(trifluoromethyl)phenyl]pyrrolo[3,2-b]pyridine] | 2510 nM
Cc1cc(-c2cnc3c(Cl)cn(Cc4cccnn4)c3c2)ccc1F [Example 614, 3-Chloro-6-(4-fluoro-3-methyl-phenyl)-1-(pyridazin-3-ylmethyl)pyrrolo[3,2-b]pyridine] | 31.6 nM
FC(F)(F)c1cccc(-c2cnc3c(Cl)cn(Cc4cccnn4)c3c2)c1 [Example 615, 3-Chloro-1-(pyridazin-3-ylmethyl)-6-[3-(trifluoromethyl)phenyl]pyrrolo[3,2-b]pyridine] | 25.1 nM
CCN(C)C(=O)Cn1cc(C)c2ncc(-c3ccc(F)c(C)c3)cc21 [Example 617, N-Ethyl-2-[6-(4-fluoro-3-methyl-phenyl)-3-methyl-pyrrolo[3,2-b]pyridin-1-yl]-N-methyl-acetamide] | 50.1 nM
CCN(C)C(=O)Cn1cc(C)c2ncc(-c3ccc(F)c(F)c3)cc21 [Example 620, 2-[6-(3,4-Difluorophenyl)-3-methyl-pyrrolo[3,2-b]pyridin-1-yl]-N-ethyl-N-methyl-acetamide] | 25.1 nM
Cc1cn(CC(=O)N2CC(F)(F)C2)c2cc(-c3ccc(F)c(F)c3)cnc12 [Example 621, 1-(3,3-Difluoroazetidin-1-yl)-2-[6-(3,4-difluorophenyl)-3-methyl-pyrrolo[3,2-b]pyridin-1-yl]ethanone] | 631 nM
Cc1c(F)ccc(-c2cnc3c(C)cn(CC(=O)N(C)C)c3c2)c1F [Example 622, 2-[6-(2,4-Difluoro-3-methyl-phenyl)-3-methyl-pyrrolo[3,2-b]pyridin-1-yl]-N,N-dimethyl-acetamide] | 100 nM
CCN(C)C(=O)Cn1cc(C)c2ncc(-c3ccc(F)c(C)c3F)cc21 [Example 625, 2-[6-(2,4-Difluoro-3-methyl-phenyl)-3-methyl-pyrrolo[3,2-b]pyridin-1-yl]-N-ethyl-N-methyl-acetamide] | 100 nM
Cc1c(F)ccc(-c2cnc3c(C)cn(CC(=O)N4CC(F)(F)C4)c3c2)c1F [Example 626, 1-(3,3-Difluoroazetidin-1-yl)-2-[6-(2,4-difluoro-3-methyl-phenyl)-3-methyl-pyrrolo[3,2-b]pyridin-1-yl]ethanone] | 631 nM
Cc1c(F)ccc(-c2cnc3c(C)cn(CC(=O)N4CC(F)C4)c3c2)c1F [Example 629, 2-[6-(2,4-Difluoro-3-methyl-phenyl)-3-methyl-pyrrolo[3,2-b]pyridin-1-yl]-1-(3-fluoroazetidin-1-yl)ethanone] | 39.8 nM
Cc1ccc(-c2cnc3c(C)cn(CC(=O)N4CC(F)(F)C4)c3c2)s1 [Example 632, 1-(3,3-Difluoroazetidin-1-yl)-2-[3-methyl-6-(5-methyl-2-thienyl)pyrrolo[3,2-b]pyridin-1-yl]ethanone] | 200 nM
Cc1ccc(-c2cnc3c(C)cn(CC(=O)N4CCC4)c3c2)s1 [Example 633, 1-(Azetidin-1-yl)-2-[3-methyl-6-(5-methyl-2-thienyl)pyrrolo[3,2-b]pyridin-1-yl]ethanone] | 50.1 nM
Cc1ccc(-c2cnc3c(C)cn(CC(=O)N4CC(F)C4)c3c2)s1 [Example 634, 1-(3-Fluoroazetidin-1-yl)-2-[3-methyl-6-(5-methyl-2-thienyl)pyrrolo[3,2-b]pyridin-1-yl]ethanone] | 631 nM

The remaining compounds from weak to strong by IC50, led by results:

IC50 | Structure (SMILES)
316 nM | Cc1cn(CC(=O)N2CC(F)C2)c2cc(-c3cc(F)cc(F)c3)cnc12 [Example 635, 2-[6-(3,5-Difluorophenyl)-3-methyl-pyrrolo[3,2-b]pyridin-1-yl]-1-(3-fluoroazetidin-1-yl)ethanone]
251 nM | CCN(C)C(=O)Cn1cc(C)c2ncc(-c3ccc(C)s3)cc21 [Example 630, N-Ethyl-N-methyl-2-[3-methyl-6-(5-methyl-2-thienyl)pyrrolo[3,2-b]pyridin-1-yl]acetamide]
158 nM | Cc1c(F)ccc(-c2cnc3c(C)cn(CC(=O)N4CCC4)c3c2)c1F [Example 627, 1-(Azetidin-1-yl)-2-[6-(2,4-difluoro-3-methyl-phenyl)-3-methyl-pyrrolo[3,2-b]pyridin-1-yl]ethanone]
158 nM | Cc1ccc(-c2cnc3c(C)cn(CC(=O)N4CCCC4)c3c2)s1 [Example 631, 2-[3-Methyl-6-(5-methyl-2-thienyl)pyrrolo[3,2-b]pyridin-1-yl]-1-pyrrolidin-1-yl-ethanone]
100 nM | Cc1cn(CC(=O)N(C)C)c2cc(-c3ccc(Cl)s3)cnc12 [Example 628, 2-[6-(5-Chloro-2-thienyl)-3-methyl-pyrrolo[3,2-b]pyridin-1-yl]-N,N-dimethyl-acetamide]
79.4 nM | Cc1c(F)ccc(-c2cnc3c(C)cn(CC(=O)N4CCCC4)c3c2)c1F [Example 624, 2-[6-(2,4-Difluoro-3-methyl-phenyl)-3-methyl-pyrrolo[3,2-b]pyridin-1-yl]-1-pyrrolidin-1-yl-ethanone]
39.8 nM | Cc1cccc(-c2cnc3c(F)cn(CC(=O)N4CC(F)C4)c3c2)c1 [Example 607, 1-(3-Fluoroazetidin-1-yl)-2-[3-fluoro-6-(m-tolyl)pyrrolo[3,2-b]pyridin-1-yl]ethanone]
39.8 nM | Cc1cn(CC(=O)N2CCCC2)c2cc(-c3ccc(F)c(F)c3)cnc12 [Example 619, 2-[6-(3,4-Difluorophenyl)-3-methyl-pyrrolo[3,2-b]pyridin-1-yl]-1-pyrrolidin-1-yl-ethanone]
31.6 nM | FC(F)(F)c1cccc(-c2cnc3c(Cl)cn(Cc4cccnc4)c3c2)c1 [Example 612, 3-Chloro-1-(3-pyridylmethyl)-6-[3-(trifluoromethyl)phenyl]pyrrolo[3,2-b]pyridine]
31.6 nM | Cc1cc(-c2cnc3c(C)cn(CC(=O)N4CCCC4)c3c2)ccc1F [Example 616, 2-[6-(4-Fluoro-3-methyl-phenyl)-3-methyl-pyrrolo[3,2-b]pyridin-1-yl]-1-pyrrolidin-1-yl-ethanone]
31.6 nM | Cc1cc(-c2cnc3c(C)cn(CC(=O)N4CC(F)(F)C4)c3c2)ccc1F [Example 618, 1-(3,3-Difluoroazetidin-1-yl)-2-[6-(4-fluoro-3-methyl-phenyl)-3-methyl-pyrrolo[3,2-b]pyridin-1-yl]ethanone]
15.8 nM | Cc1cn(CC(=O)N2CCCC2)c2cc(-c3cc(F)cc(F)c3)cnc12 [Example 623, 2-[6-(3,5-Difluorophenyl)-3-methyl-pyrrolo[3,2-b]pyridin-1-yl]-1-pyrrolidin-1-yl-ethanone]

From US10377753B2, “Substituted 4-azaindoles and their use as GluN2B receptor modulators” (Janssen Pharmaceutica NV, priority 2015, dated 2019)
